Our source for the Ki values is patent US6562854B2, “Compositions comprising a substituted benzimidazole useful for treating immunomediated inflammatory disorders” (Axys Pharmaceuticals, Inc., priority 1994, dated 2003).

The structures appear in SMILES notation. Structures can show the parent of a compound that is named as a salt.

The subject of this assay is tryptase purified from human lung or skin tissue preparations or human mast cell line (HMC-1). The experiment in a line: In vitro Tryptase Inhibition Assay. It is filed as biochemical. Conditions: substrate tosyl-Gly-Pro-Lys-p-nitroanilide; Tris-HCl pH 8.2; zinc chloride 150 μM; 1 hour preincubation at room temperature; read-out: Ki (apparent inhibition constant, tryptase inhibitory activity). As for the experimental part: Tryptase solution ([…]) was prepared by dissolving tryptase purified from human lung or skin tissue preparations or human mast cell line (HMC-1) or obtained from commercial sources, e.g., ICN Biomeidals, Irvine, Calif., Athens Research & Technology, Athens, Ga., etc., in a solvent mixture comprising: 10 mM 2-N-morpholinoethane sulfonic acid, 2 mM CaCl2, 20% glycerol and 50 µg/mL heparin. Substrate solution containing 2 mM synthetic tripeptide (tosyl-Gly-Pro-Lys-p-nitroanilide) was obtained from Sigma. Test Compound solutions were prepared by diluting a stock solution (1 mg of test Compound in 200 μL of dimethylsulfoxide (DMSO)) by ten-fold into assay buffer (comprising: Tris-HCl (pH 8.2), 50 mM; NaCl, 100 MM; 0.05% polyoxyethylenesorbitan monolaurate (Tween-20®); and zinc chloride, 150 μM) and then making seven additional three-fold dilutions into 10% DMSO in assay buffer.
Aliquots (50 μL) from each of the eight dilutions of test compound solution were added to separate wells in a 96-well U-bottom microtiter plate. Typtase solution (25 μL) was added to each well and the solutions were mixed 1 hour at room temperature. Substrate solution (25 μL) was added to initiate the enzymatic reaction and the microtiter plates were immediately transferred to a UVIMAX Kinetic Microplate Reader (Molecular Devices). The hydrolysis of the chromogenic substrate was followed spectrophotometrically at 405 nanometers for five minutes. Initial velocity measurements were calculated from the progress curves by kinetic analysis program (BatchKi; Petr Kuzmic, University of Wisconsin, Madison, Wis.). Apparent inhibition constants (K) were calculated from the enzyme progress curves using standard mathematical models.

Turning to `CC(=N)N1CCc2[nH]c(C(C)c3nc4ccc(C(=O)NCCOc5ccccc5C(=O)O)cc4n3C)nc2C1` (stereo not shown) [Compound 74, 2-[2-(2-{1-[5-(1-iminoethyl)-4,5,6,7-tetrahydro-1H-imidazo[4,5-c]pyridin-2-yl]ethyl}-3-methyl-3H-benzoimidazol-5-ylcarbonylamino)ethoxy]benzoic acid], the Ki is 6 nM.
For `CCCOC(=O)c1ccccc1OCCNC(=O)c1ccc2nc(C(C)c3nc4cc(O)ccc4[nH]3)n(C)c2c1` (stereo not shown) [Compound 42, propyl 2-(2-{2-[1-(5-hydroxy-1H-benzoimidazol-2-yl)ethyl]-3-methyl-3H-benzoimidazol-5-ylcarbonylamino}ethoxy)benzoate] the value was 8 nM.
For `COCCn1c(C(C)c2nc3c([nH]2)CCN(C(C)=N)C3)nc2ccc(C(=O)NCCOc3ccccc3C(=O)O)cc21` (stereo not shown) [Compound 194, 2-[2-(2-{1-[5-(1-iminoethyl)-4,5,6,7-tetrahydro-1H-imidazo [4,5-c]pyridin-2-yl]ethyl)-3-(2-methoxyethyl)-3H-benzoimidazol-5-ylcarbonylamino)ethoxy]benzoic acid] the value was 9 nM; for `CC(c1nc2cc(NC(=N)N)ccc2[nH]1)c1nc2ccc(C(=O)NCCOc3ccc(Cl)cc3C(=O)O)cc2n1C` (stereo not shown) [Compound 252, 5-chloro-2-(2-{2-[1-(5-guanidino-1H-benzoimidazol-2-yl)ethyl]-3-methyl-3H-benzoimidazol-5-ylcarbonylamino}ethoxy)benzoic acid], 0.4 nM.
Consider `NCc1ccc2[nH]c(Cc3nc4cc(NC(=O)OCCc5ccccc5)ccc4[nH]3)nc2c1` [Compound 27, 2-Phenylethyl 2-(5-aminomethyl-1H-benzoimidazol-2-ylmethyl)-1H-benzoimidazole-5-carbamate trifluoroacetate], for which the Ki was found to be 600 nM.
In the case of `N=C(N)Nc1ccc2[nH]c(C(=O)c3nc4ccc(C(=O)NCCc5cccc6ccccc56)cc4n3CC(O)CO)nc2c1` (stereo not shown) [Compound 134, 2-(5-guanidino-1H-benzoimidazol-2-ylcarbonyl)-3-(2,3-dihydroxy)propyl-N-(2-naphth-1-ylethyl)-3H-benzoimidazole-5-carboxamide] it was 0.02 nM; in that of `CC(C)COC(=O)c1ccccc1OCCNC(=O)c1ccc2nc(C(C)c3nc4cc(O)ccc4[nH]3)n(C)c2c1` (stereo not shown) [Compound 43, isobutyl 2-(2-{2-[1-(5-hydroxy-1H-benzoimidazol-2-yl)ethyl]-3-methyl-3H-benzoimidazol-5-ylcarbonylamino}ethoxy)benzoate], 2 nM.
In the case of `CC(=N)N1CCc2[nH]c(Cc3nc4ccc(C(=O)NCCc5cccc6ccccc56)cc4n3C)nc2C1` [Compound 115, 2-[5-(1-iminoethyl)-4,5,6,7-tetrahydro-1H-imidazo[4,5-c]pyridin-2-ylmethyl]-3-methyl-N-(2-naphth-1-ylethyl)-3H-benzoimidazole-5-carboxamide] it was 3 nM; in that of `CC(=N)N1CCc2[nH]c(Cc3nc4ccc(C(=O)NCCc5c(O)ccc6ccccc56)cc4n3C)nc2C1` [Compound 127, 2-[5-(1-iminoethyl)-4,5,6,7-tetrahydro-1H-imidazo[4,5-c]pyridin-2-ylmethyl]-3-methyl-N-[2-(2-hydroxynaphth-1-yl)ethyl]-3H-benzoimidazole-5-carboxamide], 6 nM.
In the case of `CC(=N)N1CCc2[nH]c(Cc3nc4ccc(C(=O)NCC(O)c5cccc6ccccc56)cc4n3C)nc2C1` (stereo not shown) [Compound 126, 2-[5-(1-iminoethyl)-4,5,6,7-tetrahydro-1H-imidazo[4,5-c]pyridin-2-ylmethyl]-3-methyl-N-(2-hydroxy-2-naphth-1-ylethyl)-3H-benzoimidazole-5-carboxamide] it was 8 nM.
Regarding `NCc1ccc2[nH]c(Cc3nc4cc(OCCCCc5ccccc5)ccc4[nH]3)nc2c1` [Compound 26, C-{2-[5-(4-phenylbutoxy)-1H-benzoimidazol-2-ylmethyl]-1H-benzoimidazol-5-yl}methylamine], the Ki came to 33000 nM.
For `CCOC(=O)c1ccccc1OCCNC(=O)N1CCc2[nH]c(C(C)c3nc4c([nH]3)CCN(C(C)=N)C4)nc2C1` (stereo not shown) [Compound 203, ethyl 2-[2-(2-{1-[5-(1-iminoethyl)-4,5,6,7-tetrahydro-1H-imidazo[4,5-c]pyridin-2-yl]ethyl}-1,4,6,7-tetrahydroimidazo[4,5-c]pyridin-5-ylcarbonylamino)ethoxy]benzoate] the value was 8 nM.
As to `CCOC(=O)c1ccccc1CCCC(=O)N1CCc2[nH]c(C(C)c3nc4cc(NC(=N)N)ccc4[nH]3)nc2C1` (stereo not shown) [Compound 29, Ethyl 2-(4-{2-[1-(5-guanidino-1H-benzoimidazol-2-yl)ethyl]-1,4,6,7-tetrahydroimidazo[4,5-c]pyridin-5-yl}-4-oxobutyl)benzoate], the Ki is 0.8 nM.
Consider `CC(c1nc2cc(NC(=N)N)ccc2[nH]1)c1nc2ccc(C(=O)NCCOc3cc(Cl)ccc3C(=O)O)cc2n1C` (stereo not shown) [Compound 251, 4-chloro-2-(2-{2-[1-(5-guanidino-1H-benzoimidazol-2-yl)ethyl]-3-methyl-3H-benzoimidazol-5-ylcarbonylamino}ethoxy)benzoic acid], for which the Ki came to 0.8 nM.
For `CC(c1nc2c(F)cc(F)c(F)c2[nH]1)c1nc2ccc(C(=O)NCCOc3ccccc3C(=O)O)cc2n1C` (stereo not shown) [Compound 80, 2-(2-{2-[1-(4,6,7-Trifluoro-1H-benzoimidazol-2-yl)ethyl]-3-methyl-3H-benzoimidazol-5-ylcarbonylamino}ethoxy)benzoic acid] the value was 10 nM; for `CC(c1nc2cc(F)c(F)cc2[nH]1)c1nc2ccc(C(=O)NCCOc3ccccc3C(=O)O)cc2n1C` (stereo not shown) [Compound 81, 2-(2-{2-[1-(5,6-difluoro-1H-benzoimidazol-2-yl)ethyl]-3-methyl-3H-benzoimidazol-5-ylcarbonylamino}ethoxy)benzoic acid], 10 nM; for `CCCCOC(=O)c1ccccc1OCCNC(=O)c1ccc2nc(C(C)c3nc4cc(O)ccc4[nH]3)n(C)c2c1` (stereo not drawn) [Compound 37, butyl 2-(2-{2-[l-(5-hydroxy-1H-benzoimidazol-2-yl)ethyl]-3-methyl-3H-benzoimidazol-5-ylcarbonylamino}ethoxy)benzoate], 2 nM.
For `CC(c1nc2cc(NC(=N)N)ccc2[nH]1)c1nc2ccc(C(=O)NCCOc3ccc(Cl)cc3C(N)=O)cc2n1C` (stereo not shown) [Compound 250, 2-[1-(5-guanidino-1H-benzoimidazol-2-yl)ethyl]-N-[2-(2-carbamoyl-4-chlorophenoxy)ethyl]-3-methyl-3H-benzoimidazole-5-carboxamide] the value was 0.4 nM; for `COc1ccccc1OCCNC(=O)c1ccc2nc(C(C)c3nc4cc(O)ccc4[nH]3)n(C)c2c1` (stereo not shown) [Compound 30, 2-[1-(5-Hydroxy-1H-benzoimidazol-2-yl)ethyl]-N-[2-(2-methoxyphenoxy)ethyl]-3-methyl-3H-benzoimidazole-5-carboxamide], 9 nM; for `N=C(N)Nc1ccc2[nH]c(Cc3nc4ccc(C(=O)NCCc5cccc6ccccc56)cc4n3CCO)nc2c1` [Compound 152, 2-(5-guanidino-1H-benzoimidazol-2-ylmethyl)-3-(2-hydroxy)ethyl-N-(2-naphth-1-ylethyl)-3H-benzoimidazole-5-carboxamide], 0.5 nM.
For `CC(=N)N1CCc2[nH]c(Cc3nc4ccc(C(=O)NCCc5ccc(O)c6ccccc56)cc4n3C)nc2C1` [Compound 128, 2-[5-(1-iminoethyl)-4,5,6,7-tetrahydro-1H-imidazo[4,5-c]pyridin-2-ylmethyl]-3-methyl-N-[2-(4-hydroxynaphthal-1-yl)ethyl]-3H-benzoimidazole-5-carboxamide] the value was 2 nM; for `NCc1ccc2[nH]c(Cc3nc4cc(C(=O)NCCCCc5ccccc5)ccc4[nH]3)nc2c1` [Compound 1, 2-(5-Aminomethyl-1H-benzoimidazol-2-ylmethyl)-N-(4-phenylbutyl)-1H-benzoimidazole-5-carboxamide trifluoroacetate], 90 nM.
As for `CC(=N)N1CCc2[nH]c(C(C)c3nc4ccc(C(=O)NCCOc5ccccc5-c5nnn[nH]5)cc4n3C)nc2C1` (stereo not shown) [Compound 225, 2-{1-[5-(1-iminoethyl)-4,5,6,7-tetrahydro-1H-imidazo[4,5-c]pyridin-2-yl]ethyl}-3-methyl-N-[2-(2-tetrazolylphenoxy)ethyl]-3H-benzoimidazole-5-carboxamide], the Ki was determined as 8 nM.
Turning to `N=C(N)Nc1ccc2[nH]c(Cc3nc4ccc(C(=O)NCCc5cccc6ccccc56)cc4n3CCCO)nc2c1` [Compound 138, 2-(5-guanidino-1H-benzoimidazol-2-ylmethyl)-3-(3-hydroxy)propyl-N-(2-naphth-1-ylethyl)-3H-benzoimidazole-5-carboxamide], the Ki was determined as 0.2 nM.
In the case of `CC(=N)N1CCc2[nH]c(C(C)c3nc4ccc(C(=O)NCCc5cccc6ccccc56)cc4n3C)nc2C1` (stereo not shown) [Compound 169, 2-{1-[5-(1-iminoethyl)-4,5,6,7-tetrahydro-1H-imidazo[4,5-c]pyridin-2-yl]ethyl}-3-methyl-N-(2-naphth-1-ylethyl)-3H-benzoimidazole-5-carboxamide] it was 1 nM.
